Assays:
leukotriene biosynthesis = assay: In vivo leukotriene inhibition in rat peritoneal anaphylaxis model; conditions: oral gavage 1 h before antigen challenge; for % Inhibition (dose): 30 μmol/kg
Description: Inhibition of the biosynthesis of leuktrienes in vivo after oral administration of compound was determined using a rat peritoneal anaphylaxis model in a similar manner as that described by Young and coworkers (Young, P. R.; Dyer, R. D.; Carter, G. W. Fed. Proc., Fed. Am. Soc. Exp. Biol. 1985, 44, 1185). In this model rats were injected intraperitoneally (ip) with rabbit antibody to bovine serum albumin (BSA) and three hours later injected ip with BSA to induce an antgen-antibody response. Rats were sacrificed 15 minutes after this challenge and the peritoneal fluids were collected and analyzed for leukotriene levels. Test compounds were administered by gavage one hour prior to the antigen challenge. Percent inhibition values were determined by comparing the treatment group to the mean of the control group.

5-Lipoxygenase = assay: Inhibition of calcium ionophore-induced LTB4 formation in human polymorphonuclear leukocytes (PMNL); assay type: cell-based; conditions: stimulated LTB4 formation in human PMNL; calcium ionophore 8.3 μM, 15 min preincubation
Description: Inhibition of leukotriene biosynthesis was evaluated in an assay involving calcium ionophore-induced LTB4 expressed in human polymorphornuclear leukocytes (PMNL). Human PMNL isolated from heparinized (20 USP units/mL) venous blood (25 mL) obtained from healthy volunteers was layered over an equal volume of Ficoll-Hypaque Mono-Poly Resolving Medium (ICN Flow, Costa Mesa, Calif.) and centrifugated at 400 x g for 40 min at 20° C. The PMNL was collected, erythrocytes lysed and washed 2x and suspended at 1.0×10^7 cells/mL in Earle's balanced salt solution with 17 mM Earle's HEPES. Aliquots of the cell suspension were preincubated with test compounds dissolved in DMSO (final concentration <2%) for 15 min. and stimulated with calcium ionophore (final concentration 8.3 μM) for 10 min. at 37° C. Incubations were stopped with the addition of two volumes of ice-cold methanol followed by centrifuging the cell suspensions at 4° C. for 10 min at 450 x g. The mount of LTB4 in the methanol extract was analyzed by enzyme-linked immunoassay or by HPLC analysis.

leukotriene = assay: In vivo leukotriene inhibition in rat pleural inflammation (A23187 ionophore-induced); conditions: dosed in 0.2% methocel 1 h before intrapleural A23187, male rats; for ED50: Rattus norvegicus
Description: Pleural inflammation was induced in male rats following the method of Rao et al (Rao, T. S., Currie, J. L., Shaffer, A. F., Isakson, P. C., (1993) Evaluation of 5-lipoxygenase Inhibitors, Zileuton, A-78773 and ICI D-2138 in an Ionophore (A-23 187) Induced Pleural Inflammation Model in the Rat. Life Sciences, 53: 147). Rats were dosed with experimental compounds in 0.2% methocel one hour prior to the intrapleural injection of the calcium ionophore, A23 187. The rats where lightly anesthetized with Pentrane (Abbott Laboratories) and injected intrapleurally with 0.5 ml of 2% ethanol in injectable saline (Abbott Laboratories) containing 20 ug of A23187 (Cal BioChem-Novabiochem). Thirty minutes later the animals were euthanised and the pleural cavities lavaged with ice cold saline (Abbott Laboratories). The lavage fluid was then added to ice cold methanol (final methanol concentration 30%) to lyse cells and precipitate protein. Eicosanoids were determined by enzyme immunoassay by standard methods.

| Compound | IC50 (5-Lipoxygenase) | further results |
| --- | --- | --- |
| O=C(O)C=NOC(c1ccc(OCc2ccc3ccccc3n2)cc1)C1CCCCC1 (stereo not shown) [Example 1, Cyclohexyl-(4-(2-quinolylmethoxy)phenyl)methyl!iminoxyacetic acid] | 21 nM | % Inhibition (dose) (leukotriene biosynthesis): 82% |
| CC(=NOC(c1ccc(OCc2ccc3ccccc3n2)cc1)C1CCCCC1)C(=O)O (stereo not shown) [Example 2, Cyclohexyl-(4-(2-quinolylmethoxy)phenyl)methyl!-2-iminoxy propionic acid] | 4 nM | ED50 (leukotriene biosynthesis): 1.2 mg/kg; % Inhibition (dose) (leukotriene; 30 μmol/kg): 89% |
| O=C(O)c1ccc(C=NOC(c2ccc(OCc3ccc4ccccc4n3)cc2)C2CCCCC2)cc1 (stereo not shown) [Example 6, O-Cyclohexyl-(4-(2-quinolylmethoxy)phenyl)methyl!-4-carboxybenzaldoxime] | 32 nM | – |
| O=C(O)C=NOC(CCCc1ccc(Cl)cc1)c1ccc(OCc2ccc3ccccc3n2)cc1 (stereo not shown) [Example 12, 4-(4-Chlorophenyl)-1-(4-(2-quinolylmethoxy)phenyl) butyl!iminoxyacetic acid] | 55 nM | – |
| O=C(O)c1ccc(C=NOC(CC2CCCCC2)c2ccc(OCc3ccc4ccccc4n3)cc2)cc1 (stereo not shown) [Example 14, O-2-Cyclohexyl-1-(4-(2-quinolylmethoxy)phenyl)eth-1-yl!-4-carboxybenzaldoxime] | 4 nM | – |
| CC(=NOC(CC1CCCCC1)c1ccc(OCc2ccc3ccccc3n2)cc1)C(=O)O (stereo not shown) [Example 15, 2-Cyclohexyl-1-(4-(2-quinolylmethoxy)phenyl)eth-1-yl!-2-iminoxypropionic acid] | 6 nM | – |
| O=C(O)c1ccc(C=NOC(CC2CCCCC2)c2ccc(OCc3cscn3)cc2)cc1 (stereo not shown) [Example 19, O-2-cyclohexyl-1-(4-(4-thiazolylmethoxy)phenyl)eth-1-yl!-4-carboxybenzaldoxime] | – | % Inhibition (dose) (leukotriene biosynthesis): 81% |
| O=C(O)C=NOCC(c1ccc(OCc2ccc3ccccc3n2)cc1)C1CCCCC1 (stereo not shown) [Example 26] | 5 nM | – |
| O=C(O)C=NOCC(c1ccc(OCc2ccc3ccccc3n2)cc1)C1CCCCCC1 (stereo not shown) [Example 27, 2-Cycloheptyl-2-(4-(2-quinolylmethoxy)phenyl)eth-1-yl!iminoxyacetic acid] | 8 nM | ED50 (leukotriene biosynthesis): 0.7 mg/kg |
| CC(C)(C=NOCC(c1ccc(OCc2ccc3ccccc3n2)cc1)C1CCCCCC1)C(=O)O (stereo not shown) [Example 28, 2-cycloheptyl-2-(4-(2-quinolylmethoxy)phenyl)eth-1-yl!-3-iminoxy-2,2-dimethylpropionic acid] | 5 nM | – |
| COC(=O)/C(C)=N\OC(c1ccc(OCc2ccc3ccccc3n2)cc1)C1CCCCC1 (stereo not shown) [Example 30, Cyclohexyl-(4-(2-quinolylmethoxy)phenyl)methyl!-Z-2-iminoxypropionic acid methyl ester] | 170 nM | – |
| COC(=O)/C(C)=N/OC(c1ccc(OCc2ccc3ccccc3n2)cc1)C1CCCCC1 (stereo not shown) [Example 31, Cyclohexyl-(4-(2-quinolylmethoxy)phenyl)methyl!-E-2-iminoxypropionic acid methyl ester] | 25 nM | – |
| C/C(=N/OC(c1ccc(OCc2ccc3ccccc3n2)cc1)C1CCCCC1)C(=O)O (stereo not shown) [Example 32, cyclohexyl-(4-(2-quinolylmethoxy)phenyl)methyl!-Z-2-iminoxypropionic acid] | 170 nM | – |
| C/C(=N\OC(c1ccc(OCc2ccc3ccccc3n2)cc1)C1CCCCC1)C(=O)O (stereo not shown) [Example 33, cyclohexyl-(4-(2-quinolylmethoxy)phenyl)methyl!-E-2-iminoxypropionic acid] | 15 nM | – |
| COC(=O)/C(C)=N/O[C@@H](c1ccc(OCc2ccc3ccccc3n2)cc1)C1CCCCC1 [Example 34] | 470 nM | – |
| C/C(=N\O[C@@H](c1ccc(OCc2ccc3ccccc3n2)cc1)C1CCCCC1)C(=O)O [Example 35, (R)-Cyclohexyl-(4-(2-quinolylmethoxy)phenyl)methyl!-E-2-iminoxypropionic acid] | 70 nM | – |

| Compound | IC50 (5-Lipoxygenase) | further results |
| --- | --- | --- |
| COC(=O)/C(C)=N/O[C@H](c1ccc(OCc2ccc3ccccc3n2)cc1)C1CCCCC1 [Example 36, (S)-Cyclohexyl-(4-(2-quinolylmethoxy)phenyl)methyl!-E-2-iminoxypropionic acid methyl ester] | 50 nM | – |
| C/C(=N\O[C@H](c1ccc(OCc2ccc3ccccc3n2)cc1)C1CCCCC1)C(=O)O [Example 37, (S)-Cyclohexyl-(4-(2-quinolylmethoxy)phenyl)methyl!-E-2-iminoxypropionic acid] | 6 nM | – |
| O=C(O)/C=N/OC(c1ccc(OCc2ccc3ccccc3n2)cc1)C1CCCCC1 (stereo not shown) [Example 40, Cyclohexyl-(4-(2-quinolylmethoxy)phenyl)methyl!-E-iminoxyacetic acid] | 17 nM | – |
| C/C(=N\OC(Cc1ccccc1)c1ccc(OCc2ccc3ccccc3n2)cc1)C(=O)O (stereo not shown) [Example 42, 2-phenyl-1-(4-(2-quinolylmethoxy)phenyl)eth-1-yl!-E-2-iminoxy propionic acid] | < 100 nM | – |
| C/C(=N\OC(c1ccc(OCc2ccc3ccccc3n2)cc1)c1cccs1)C(=O)O (stereo not shown) [Example 43, 2-thienyl-(4-(2-quinolylmethoxy)phenyl)methyl!-E-2-iminoxy propionic acid] | < 100 nM | – |
| C/C(=N\OC(c1ccc(OCc2ccc3ccccc3n2)cc1Cl)C1CCCCC1)C(=O)O (stereo not shown) [Example 44, Cyclohexyl-(2-chloro4-(2-quinolylmethoxy)phenyl)methyl!-E-2-iminoxypropionic acid] | < 100 nM | – |
| C/C(=N\OC(c1ccc(OCc2ccc3ccccc3n2)c(Cl)c1)C1CCCCC1)C(=O)O (stereo not shown) [Example 45, Cyclohexyl-(3-chloro-4-(2-quinolylmethoxy)phenyl)methyl!-E-2-iminoxypropionic acid] | < 100 nM | ED50 (leukotriene): 1.2 mg/kg |
| C/C(=N\OC(CC(C)(C)c1ccccc1)c1ccc(OCc2ccc3ccccc3n2)cc1)C(=O)O (stereo not shown) [Example 48, 3-methyl-3-phenyl-1-(4-(2-quinolylmethoxy)phenyl)but-1-yl!-E-2-iminoxypropionic acid] | < 100 nM | ED50 (leukotriene): 2 mg/kg |
| CC(C)(CC(O/N=C/C(=O)O)c1ccc(OCc2ccc3ccccc3n2)cc1)c1ccccc1 (stereo not shown) [Example 49, 3-methyl-3-phenyl-1-(4-(2-quinolylmethoxy)phenyl)but-1-yl!-E-2-iminoxyacetic acid] | < 100 nM | – |
| CCCCC(O/N=C(\C)C(=O)O)c1ccc(OCc2ccc3ccccc3n2)cc1 (stereo not shown) [Example 50, 4-(2-quinolylmethoxy)phenylpent-1-yl!-E-2-iminoxypropionic acid] | < 100 nM | – |
| CCCCC(O/N=C/C(=O)O)c1ccc(OCc2ccc3ccccc3n2)cc1 (stereo not shown) [Example 51] | < 100 nM | – |
| CC(=NOCC(c1ccc(OCc2ccc3ccccc3n2)cc1)C1CCCCC1)C(=O)O (stereo not shown) [Example 55, Cyclohexyl-1-(4-(2-quinolylmethoxy)phenyl)eth-2-yl!-2-iminoxy propionic acid] | 30 nM | – |
| CC(=NOCc1ccc(OCc2ccc3ccccc3n2)cc1Cl)C(=O)O [Example 57, 2-chloro-(4-(2-quinolylmethoxy)phenyl)methyl!-2-iminoxy propionic acid] | < 100 nM | – |
| CC(=NOC(c1ccc(OCc2ccc3ccccc3n2)cc1)C1CCCCCC1)C(=O)O (stereo not shown) [Example 58, Cycloheptyl-(4-(2-quinolylmethoxy)phenyl)methyl!-2-iminoxy propionic acid] | < 100 nM | – |
| C/C(=N\OC[C@@H](c1ccc(OCc2ccc3ccccc3n2)cc1)C1CCCC1)C(=O)O [Example 62] | 36 nM | – |
